In patent US20220120732A1, “TREATMENT OF DISEASES WITH MULTIMERIC PEPTIDES” (Ramot at Tel-Aviv University Ltd., priority 2019, published 2022):
Bridges are numbered along the chain shown (N, C = ends). Roman numbers before positions name the chains, in order. Where no end group is shown, it is not given here.

Tested on: normal stroma cells
Assay: Cell density, patient-derived stromal cells with autologous PBMC and C24D
Type: cell-based, human
Details: autologous PBMCs + C24D; FIGS. 5A-B
Description: Patient-derived tumor primary culture medium: Medium D: DMEM/F12 (1:1, v/v) supplemented with 10% FBS and 1% antibiotics/antimycotic (100×. Medium M: Medium 171 supplemented with 1% MEGS (100×), and 1% antibiotics/antimycotics. Medium DB: mixed from medium D and medium M (1:1, v/v).
Tumor biopsies, all from different patients, were collected after obtaining the patients' consent and were transported to the laboratory. Excess adipose tissue was pared off the tumor samples, following which the samples were sliced into small fragments (approximately 1-2 mm^2) by using a scalpel. The fragments were seeded per 10 cm^2 Petri dishes in DB medium. The Petri dishes were incubated at 37° C. with 5% CO2 and monitored daily to record the time of cell appearance and the cell morphology. The medium was replaced every 3 days. Approximately two weeks after primary culture incubation, cells were trypsinized and cultured in Petri dishes according to the below protocol.
Day 1: 4×10^5 tumor cells from the cell line or tumor and stroma cells derived from patient's biopsies were incubated in the respective growth medium in 6 well plates overnight or Petri dishes. Day 2: 3 hours prior to addition of PBMC of healthy female donors or from autologous patients, DMEM medium was changed to RPMI medium. […]

With “I: CGHHLLRPRRRKRPHSIPTPILIFRSP / II: CGHHLLRPRRRKRPHSIPTPILIFRSP (disulfide I:1-II:1) [C24D]” the “effect on normal stroma cells of the same patient” value was “no effect”.
